# Data reported in patent US20260224520A1, “ABC TRANSPORTER EXPRESSION PROMOTING AGENT, CHOLESTEROL EXCRETION PROMOTING AGENT, INFLAMMATORY CYTOKINE PRODUCTION INHIBITING AGENT, ANTI-INFLAMMATORY AGENT, AND ARTERIOSCLEROSIS PREVENTING AGENT” (MEIJI CO., LTD., priority 2022, published 2026).
# “Also recorded” adds a separate entry of the source.
# What was measured:
# [1] = tested on: Human macrophage-like THP-1 cells; assay: Cholesterol excretion promoting activity of fatty acids, fluorometry, 24 h pre-culture with the substance; type: cell-based; conditions: for cholesterol excretion promoting activity (in words): conclusion from Tables 5A and 8
# Procedure: Human macrophage-like THP-1 cells were seeded in a 96-well plate so as to be 2.0×10^5 cells/well, and allowed to differentiate for 72 hours. The medium was then replaced with RPMI 1640 medium containing 0.02% by mass of bovine serum albumin (BSA), 10 to 40 μg/mL (final concentration in the well) of 10-hydroxypalmitic acid (Angene) was added, and the cells were cultured for 24 hours. The medium was then replaced with Dulbecco's Modified Eagle Medium (DMEM) containing 0.02% by mass of BSA and 6 mM of sodium taurocholate, and the medium was recovered after 4 hours. The level of cholesterol excreted from the cells (the cholesterol level in the recovered medium) was measured in the same manner as in Example 1 to evaluate the cholesterol excretion promoting activity of 10-hydroxypalmitic acid (n=3).
# In the same manner as in Example 5A, the cholesterol excretion promoting activities of 10-hydroxypalmitic acid and other hydroxypalmitic acids (2-hydroxypalmitic acid (Tokyo Chemical Industry Co., Ltd.), 3-hydroxypalmitic acid (Sigma-Aldrich), 16-hydroxypalmitic acid (Tokyo Chemical Industry Co., Ltd.), and 10-hydroxypalmitic acid), which may be contained in Camembert cheese, as well as palmitic acid to which no hydroxyl group was added (Sigma) were evaluated (n=6 to 11).
# IL-1 = IL-1 mRNA expression level by real-time PCR in THP-1 cells with or without inflammation induction; type: cell-based, Human; conditions: 24 h, DMSO-control = 1
# Procedure: (§1) Human macrophage-like THP-1 cells were seeded in a 24-well plate so as to be 1.0×10^6 cells/well, and allowed to differentiate for 72 hours. The medium was then replaced with RPMI 1640 medium containing: 0.02% by mass of bovine serum albumin (BSA); either dimethyl sulfoxide (DMSO) or 20 μg/mL of 10-hydroxypalmitic acid; and either 50 μg/mL of oxidized LDL (oxLDL) (Invitrogen), 50 μg/mL of acetylated LDL (acLDL) (Invitrogen), 5 μM of T0901317+5 μM of 9-cis-retinoic acid (T0+RA), or 1 μg/mL of lipopolysaccharide (LPS) (Sigma), or replaced with RPMI 1640 medium (control) containing: 0.02% by mass of bovine serum albumin (BSA); and either DMSO or 20 μg/mL 10-hydroxypalmitic acid, but not containing any of oxLDL, acLDL, T0+RA, and LPS, and the macrophage-like cells were cultured for 24 hours to induce inflammation. The medium was then replaced with Dulbecco's Modified Eagle Medium (DMEM) containing 0.02% by mass of BSA and 6 mM of sodium taurocholate, and the cells were cultured for 4 hours. The cells were then recovered, and the mRNA expression levels of IL-1 and IL-6, which are inflammatory markers (inflammatory cytokines), were measured by real-time PCR in the same manner as in Example 6 (n=4 to 6).
# ABCA1 [2] = assay: ABCA1 mRNA expression level by real-time PCR in THP-1 cells; type: cell-based, Human; conditions: 20 μg/ml, 24 h; corrected with 18S ribosomal RNA; EtOH = 1; n=3
# Procedure: (§2) Since the cholesterol excretion promoting activity of 10-hydroxypalmitic acid was confirmed, the effect of 10-hydroxypalmitic acid on ABC transporters was evaluated. Specifically, human macrophage-like THP-1 cells were seeded in a 24-well plate so as to be 1.0×10^6 cells/well, and allowed to differentiate for 72 hours. The medium was then replaced with RPMI 1640 medium containing 0.02% by mass of bovine serum albumin (BSA), 20 μg/mL (final concentration in the well) of 10-hydroxypalmitic acid was added, the cells were cultured for 24 hours, then mRNA was extracted using RNeasy Minikit (Qiagen), reverse transcription was carried out using ReverTra Ace (Registered trademark) qPCR RT Master Mix with gDNA Remover (Toyobo), and the ABCA1 and ABCG1 mRNA expression levels were measured by real-time PCR using Thermal Cycler Dice TP800 (Takara). 18S ribosomal RNA was used as a control gene. The ABCA1 and ABCG1 mRNA expression levels were each corrected with the mRNA expression level of the control gene, and the ABC transporter expression promoting activity of 10-hydroxypalmitic acid was evaluated (n=3).
# [3] = tested on: Human macrophage-like THP-1 cells; assay: Cholesterol excretion promoting activity in an inflammation-induced state, fluorometry (Amplex Red); type: cell-based; conditions: for Cholesterol excretion level (Average # standard deviation): DMSO-control = 1, n=4
# Procedure: Human macrophage-like THP-1 cells were seeded in a 24-well plate so as to be 1.0×10^6 cells/well, and allowed to differentiate for 72 hours. The medium was then replaced with RPMI 1640 medium containing: 0.02% by mass of bovine serum albumin (BSA); either dimethyl sulfoxide (DMSO) or 20 μg/mL of 10-hydroxypalmitic acid; and either 50 μg/mL of oxidized LDL (oxLDL) (Invitrogen), 50 μg/mL of acetylated LDL (acLDL) (Invitrogen), 5 μM of T0901317+5 μM of 9-cis-retinoic acid (T0+RA), or 1 μg/mL of LPS (Sigma), or replaced with RPMI 1640 medium (control) containing: 0.02% by mass of BSA; and either DMSO or 20 μg/mL 10-hydroxypalmitic acid, but not containing any of oxLDL, acLDL, T0+RA, and LPS, and the macrophage-like cells were cultured for 24 hours to induce inflammation. The medium was then replaced with Dulbecco's Modified Eagle Medium (DMEM) containing 0.02% by mass of BSA and 6 mM of sodium taurocholate, and the cells were cultured for 4 hours. The medium was then recovered, and the level of cholesterol excreted from the cells (the cholesterol level in the recovered medium) was measured by fluorometry using Amplex Red to evaluate the cholesterol excretion promoting activity of 10-hydroxypalmitic acid in an inflammation-induced state (n=4).
# ABCG1 [4] = assay: ABCG1 mRNA expression level by real-time PCR in THP-1 cells; type: cell-based, Human; conditions: 20 μg/mL, 24 h; corrected with 18S ribosomal RNA; EtOH = 1; n=3
# Procedure: as §2
# ABCG1 [5] = assay: ABCG1 protein expression level by Western blotting in THP-1 cells; type: cell-based, Human; conditions: 20 μg/mL, 24 h; corrected with actin; DMSO = 1; n=3
# Procedure: (§3) The ABCA1 and ABCG1 protein expression levels were evaluated. Specifically, cells cultured in the same manner as in Example 6 were recovered, SDS-PAGE and blotting were carried out using the 10% minigel shown in Table 7A and, after blocking, the protein expression levels were measured by Western blotting using a primary antibody (anti-mouse monoclonal ABCA1 (KM3110) or anti-rabbit polyclonal ABCG1 (H65) (Novus)) and anti-actin (Sigma) as a loading control (n=3). The protein expression levels were quantified with CS Analyzer 4 […]. The ABCA1 and ABCG1 protein expression levels were each corrected with the actin protein expression level.
# IL-6 = IL-6 mRNA expression level by real-time PCR in THP-1 cells with or without inflammation induction; type: cell-based, Human; conditions: 24 h, DMSO-control = 1
# Procedure: as §1
# ABCA1 [6] = assay: ABCA1 protein expression level by Western blotting in THP-1 cells; type: cell-based, Human; conditions: 20 μg/mL, 24 h; corrected with actin; DMSO = 1; n=3
# Procedure: as §3
# [7] = tested on: Human macrophage-like THP-1 cells; assay: Cholesterol excretion promoting activity of 10-hydroxypalmitic acid by colorimetry; type: cell-based
# Procedure: The cholesterol excretion promoting activity of 10-hydroxypalmitic acid was also examined by colorimetry. Specifically, human macrophage-like THP-1 cells were seeded in a 6-well plate so as to be 4.0×10^6 cells/well, and allowed to differentiate for 72 hours. The medium was then replaced with RPMI 1640 medium containing 0.02% by mass of bovine serum albumin (BSA), 20 μg/mL (final concentration in the well) of 10-hydroxypalmitic acid (Angene) was added, and the cells were cultured for 24 hours and then recovered. Lipids were then extracted using methanol and chloroform, and the level of cholesterol excreted from the cells (the cholesterol level in the recovered medium) was measured using a free cholesterol assay kit (Fujifilm Wako Pure Chemical Corporation) to evaluate the cholesterol excretion promoting activity of 10-hydroxypalmitic acid (n =3).
# [8] = same manner as Example 5A, concentration not given, EtOH = 1, n=6 to 11
# [9] = 20 μg/mL with T0 + RA (5 μM each)
# [10] = 20 μg/mL, Control (no inducer), n=4 to 6
structure (smiles),measurement,setting,value
"CCCCCCCCCCCCCCC(O)C(=O)O (stereo not drawn) [2-Hydroxypalmitic acid, 2-hydroxypalmitic acid, reference compound]",Cholesterol excretion level (Average ± standard deviation),[1]; [8],0.970 ± 0.175 relative value
"CCCCCCCCCCCCCCCC(=O)O [Palmitic acid, palmitic acid, reference compound]",Cholesterol excretion level (Average ± standard deviation),[1]; [8],0.823 ± 0.268 relative value
CCCCCCC(O)CCCCCCCCC(=O)O (stereo not drawn) [10-hydroxypalmitic acid],IL-1 mRNA expression level (Average ± standard deviation),IL-1; 20 μg/mL with 1 μg/mL LPS,0.450 ± 0.390 relative value
same,IL-1 mRNA expression level (Average ± standard deviation),IL-1; 20 μg/mL with 50 μg/mL acLDL,0.389 ± 0.067 relative value
same,IL-1 mRNA expression level (Average ± standard deviation),IL-1; 20 μg/mL with 50 μg/mL oxLDL,0.419 ± 0.184 relative value
same,IL-1 mRNA expression level (Average ± standard deviation),IL-1; [9],0.185 ± 0.059 relative value
same,IL-1 mRNA expression level (Average ± standard deviation),IL-1; [10],0.200 ± 0.046 relative value
same,ABCA1 mRNA expression level (Average ± standard deviation),ABCA1 [2],2.870 ± 0.267 relative value
same,Cholesterol excretion level (Average # standard deviation),[3]; 20 μg/mL with 1 μg/mL LPS,9.320 ± 3.477 relative value
same,Cholesterol excretion level (Average # standard deviation),[3]; 20 μg/mL with 50 μg/mL acLDL,1.821 ± 0.426 relative value
same,Cholesterol excretion level (Average # standard deviation),[3]; 20 μg/mL with 50 μg/mL oxLDL,2.389 ± 0.628 relative value
same,Cholesterol excretion level (Average # standard deviation),[3]; [9],33.159 ± 10.920 relative value
same,Cholesterol excretion level (Average # standard deviation),"[3]; 20 μg/mL, Control (no inducer)",3.588 ± 1.302 relative value
same,cholesterol excretion promoting activity (in words),"[3]; inflammation-induced state or ABC transporters induced by T0+RA, conclusion from Table 10",had a cholesterol excretion promoting activity
same,ABCG1 mRNA expression level (Average ± standard deviation),ABCG1 [4],2.953 ± 0.195 relative value
same,Cholesterol excretion level (Average ± standard deviation),"[1]; 10 μg/mL, 24 h, DMSO = 1, n=3",1.553 ± 0.102 relative value
same,Cholesterol excretion level (Average ± standard deviation),"[1]; 20 μg/mL, 24 h, DMSO = 1, n=3",1.685 ± 0.138 relative value
same,Cholesterol excretion level (Average ± standard deviation),"[1]; 30 μg/mL, 24 h, DMSO = 1, n=3",2.313 ± 0.479 relative value
same,Cholesterol excretion level (Average ± standard deviation),"[1]; 40 μg/mL, 24 h, DMSO = 1, n=3",1.872 ± 0.374 relative value
same,cholesterol excretion promoting activity (in words),[1],concentration-dependent cholesterol excretion promoting activity; also recorded: had a cholesterol excretion promoting activity
same,Cholesterol excretion level (Average ± standard deviation),[1]; [8],1.331 ± 0.500 relative value
same,ABCG1 protein expression level (Average ± standard deviation),ABCG1 [5],2.541 ± 0.815 relative value
same,IL-6 mRNA expression level (Average ± standard deviation),IL-6; 20 μg/mL with 1 μg/mL LPS,0.530 ± 0.107 relative value
same,IL-6 mRNA expression level (Average ± standard deviation),IL-6; 20 μg/mL with 50 μg/mL acLDL,0.363 ± 0.149 relative value
same,IL-6 mRNA expression level (Average ± standard deviation),IL-6; 20 μg/mL with 50 μg/mL oxLDL,0.167 ± 0.029 relative value
same,IL-6 mRNA expression level (Average ± standard deviation),IL-6; [9],0.095 ± 0.050 relative value
same,IL-6 mRNA expression level (Average ± standard deviation),IL-6; [10],0.104 ± 0.032 relative value
same,ABCA1 protein expression level (Average ± standard deviation),ABCA1 [6],2.607 ± 0.559 relative value
same,Cholesterol excretion level (Average ± standard deviation),"[7]; 20 μg/mL, 24 h, DMSO = 1, n=3",1.569 ± 0.317 relative value
same,cholesterol excretion promoting activity (in words),[7]; conclusion from Table 5B,confirmed
"CCCCCCCCCCCCCC(O)CC(=O)O (stereo not drawn) [3-Hydroxypalmitic acid, 3-hydroxypalmitic acid, reference compound]",Cholesterol excretion level (Average ± standard deviation),[1]; [8],1.094 ± 0.271 relative value
O=C(O)CCCCCCCCCCCCCCCO [16-hydroxypalmitic acid],cholesterol excretion promoting activity (in words),[1],had a cholesterol excretion promoting activity
same,Cholesterol excretion level (Average ± standard deviation),[1]; [8],1.406 ± 0.982 relative value
